# From patent US8486991B2, “Enantiomerically pure phosphoindoles as HIV inhibitors” (Idenix Pharmaceuticals, Inc., priority 2006, dated 2013)
# “Also recorded” adds a separate entry of the source. Like-named read-outs stand apart in the source and are kept apart here.
# Columns and labels:
# HIV-2 ROD = HIV-2 ROD WT in H9 cell assay; type: cell-based
# Description: The susceptibility of HIV type 2 ROD in H9 cells to Compound I and Compound III was determined against zidovudine (AZT) as a control.
# [1] = tested on: HIV-1 W.T. strains BH10, NL4-3 and IIIB; experiment: Drug susceptibility assays, 3 W.T. strains in 5 human cell lines (ranges); type: cell-based
# Text: The virus and host-cell dependency of Compound I, Compound III and control drugs was further examined in drug susceptibility assays performed across 3 different subtype B wild-type HIV-1 strains and 5 different cell lines.
# CYP2D6 = CYP2D6 (Homo sapiens, UniProt P10635); experiment: Human liver microsomal CYP450 inhibition, CYP2D6; conditions: for IC50, CYP2D6: human liver microsomes
# CYP2D6, sequence (P10635 whole entry): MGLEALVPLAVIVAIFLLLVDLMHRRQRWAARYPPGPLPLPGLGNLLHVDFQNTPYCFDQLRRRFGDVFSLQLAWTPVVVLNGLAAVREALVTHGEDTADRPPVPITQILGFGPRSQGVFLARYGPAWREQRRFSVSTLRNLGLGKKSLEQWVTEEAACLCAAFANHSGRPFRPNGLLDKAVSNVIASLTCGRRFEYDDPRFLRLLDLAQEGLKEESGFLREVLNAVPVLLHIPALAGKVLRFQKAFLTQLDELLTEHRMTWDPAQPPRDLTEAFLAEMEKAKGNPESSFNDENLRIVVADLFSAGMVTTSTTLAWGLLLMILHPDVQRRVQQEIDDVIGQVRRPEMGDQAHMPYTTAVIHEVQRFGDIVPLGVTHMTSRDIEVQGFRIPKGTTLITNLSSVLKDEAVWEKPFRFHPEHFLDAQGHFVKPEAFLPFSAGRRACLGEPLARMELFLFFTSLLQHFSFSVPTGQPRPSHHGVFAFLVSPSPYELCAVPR
# Description: (§1) In addition, the type of inhibition was also evaluated.
# (§2) Enzyme kinetic studies of cytochrome P450 isozyme inhibition were conducted using human liver microsomes.
# [2] = target: site-directed mutant HIV-1 RT enzymes; experiment: HIV-1 RT enzyme assay, whole panel (ranges); type: biochemical; conditions: for IC50: Table 3, range over W.T. and 7 mutant enzymes; for Mean Activity Range (fold-resistance): Table 4, range of fold changes over the panel
# Text: In Vitro Antiviral Activity Against Additional Mutant HIV RT Enzymes
# The studies are summarized in the text that follows.
# [3] = Plasma protein binding by equilibrium dialysis, rat; type: in vitro ADME; conditions: for fraction unbound: rat, read-out: Percentage Plasma Protein Binding, Rats
# Description: The in vitro plasma protein binding of compound I and compound III in rat, dog, monkey and human plasma was determined by equilibrium dialysis. Protein binding was assessed by equilibrium dialysis using rat, dog, monkey and human plasma. Samples were assayed by HPLC with LC-MS/MS detection. Plasma protein binding was high (>99%) for all species and for both compounds.
# wild-type HIV-1 virus = experiment: In vitro drug-drug interaction with NRTIs and PIs, MT-4 cells, 45% HS; type: cell-based; conditions: 45% human serum, low (1×) and high (5×) concentration
# Description: The in vitro effect of each antiretroviral drug on the antiviral activity of either test article was tested in triplicate on wild-type HIV-1 virus infection of MT-4 human T cells using a standard drug susceptibility assay (DSA) performed in 45% human serum (HS) to provide a better estimate of interactions that would occur under protein binding conditions found in vivo. Compound I or Compound III were titrated alone or in combination with each NRTI or PI.
# The impact of each NRTI or PI on the efficacy of Compound I or Compound III was tested at two different drug concentrations, a “low” (1×) and a “high” (5×) concentration; the high concentration used for each compound was determined from pilot experiments conducted to ensure that measurable inhibition values could still be obtained in the presence of 45% HS.
# These in vitro drug-drug interaction studies were powered primarily to determine the potential for negative interactions between the different classes of HIV drugs, rather than to examine the potential for synergy between the different agents.
# [4] = Compound depletion in hepatocytes, human; type: in vitro ADME; conditions: up to 2 hours; for t½, Compound Depletion in Hepatocytes, Human: 1 μM; for half-life at 1 μM: human, read-out: t½, Compound Depletion in Hepatocytes, Human
# Description: Fresh hepatocytes were plated onto collagen-coated plates and exposed to test compounds at 1 μM for up to 2 hours. Tissue culture medium was assayed for compound depletion by LC/MS detection. Values in Table 23 represent independent experiments from 5 to 7 donors.
# CYP2C9 = CYP2C9 (Homo sapiens, UniProt P11712); experiment: Human liver microsomal CYP450 inhibition, CYP2C9; conditions: for Type of inhibition, CYP2C9 (Diclofenac): human liver microsomes
# CYP2C9, sequence (P11712 whole entry): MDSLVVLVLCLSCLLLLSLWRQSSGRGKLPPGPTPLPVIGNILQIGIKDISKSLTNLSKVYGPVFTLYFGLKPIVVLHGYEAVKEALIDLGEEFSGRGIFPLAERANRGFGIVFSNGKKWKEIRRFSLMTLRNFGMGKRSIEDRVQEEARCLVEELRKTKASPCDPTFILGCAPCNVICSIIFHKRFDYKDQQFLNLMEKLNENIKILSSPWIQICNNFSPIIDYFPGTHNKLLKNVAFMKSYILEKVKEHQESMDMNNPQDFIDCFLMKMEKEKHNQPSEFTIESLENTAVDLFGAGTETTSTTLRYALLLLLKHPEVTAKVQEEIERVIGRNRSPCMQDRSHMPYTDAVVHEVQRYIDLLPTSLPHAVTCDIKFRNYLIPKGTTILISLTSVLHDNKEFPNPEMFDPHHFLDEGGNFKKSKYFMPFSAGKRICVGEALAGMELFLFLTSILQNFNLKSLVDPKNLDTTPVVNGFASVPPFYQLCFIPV
# Description: as §1, §2
# Probe substrate for 2C8 was paclitaxel, probe substrate for 2C9 was diclofenac and for 3A4 probe substrates were midazolam and testosterone.
# [5] = tested on: EFV resistant, NNRTI resistant, NRTI and PI mutant HIV-1 viruses; type: cell-based; conditions: for activity against EFV resistant viruses compared with EFV: including double and triple mutants
# CYP2C19 = CYP2C19 (Homo sapiens, UniProt P33261); experiment: Human liver microsomal CYP450 inhibition, CYP2C19; conditions: for IC50, CYP2C19: human liver microsomes
# CYP2C19, sequence (P33261 whole entry): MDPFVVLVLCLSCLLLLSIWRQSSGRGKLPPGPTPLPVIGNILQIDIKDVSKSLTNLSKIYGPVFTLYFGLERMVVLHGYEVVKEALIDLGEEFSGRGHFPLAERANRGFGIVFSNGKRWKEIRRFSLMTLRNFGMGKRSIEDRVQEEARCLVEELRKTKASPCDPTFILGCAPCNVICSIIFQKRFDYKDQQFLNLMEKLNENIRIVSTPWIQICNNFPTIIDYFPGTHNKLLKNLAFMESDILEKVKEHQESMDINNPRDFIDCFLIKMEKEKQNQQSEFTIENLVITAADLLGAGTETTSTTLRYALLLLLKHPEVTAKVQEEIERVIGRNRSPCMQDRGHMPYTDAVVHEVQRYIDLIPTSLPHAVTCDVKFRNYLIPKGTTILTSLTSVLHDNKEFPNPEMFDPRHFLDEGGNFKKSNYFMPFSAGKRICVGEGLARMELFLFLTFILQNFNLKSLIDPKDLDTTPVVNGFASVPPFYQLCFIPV
# Description: as §1, §2
# [6] = In vitro half-life in liver microsomes, rat; type: in vitro ADME; conditions: up to one hour, longer half-lives are extrapolated, n=1
# Description: In vitro metabolism was assessed using liver microsomes for all species. Compounds were incubated at 1 μM with liver microsomes for up to one hour. Reported half-lives greater than the total incubation time are extrapolated values. Extracts were assayed for disappearance of parent compound by LC-MS/MS detection.
# Data represents one independent experiment conducted.
# CYP3A4 = CYP3A4 (Homo sapiens, UniProt P08684); experiment: Human liver microsomal CYP450 inhibition, CYP3A4; conditions: for Ki / Type of inhibition, CYP3A4 (Midazolam) / Type of inhibition, CYP3A4 (Testosterone) / kinact: human liver microsomes; for IC50: pooled human liver microsomes, probe midazolam and testosterone; for type of inhibition of CYP3A4: text b965, substrate not stated
# CYP3A4, sequence (P08684 whole entry): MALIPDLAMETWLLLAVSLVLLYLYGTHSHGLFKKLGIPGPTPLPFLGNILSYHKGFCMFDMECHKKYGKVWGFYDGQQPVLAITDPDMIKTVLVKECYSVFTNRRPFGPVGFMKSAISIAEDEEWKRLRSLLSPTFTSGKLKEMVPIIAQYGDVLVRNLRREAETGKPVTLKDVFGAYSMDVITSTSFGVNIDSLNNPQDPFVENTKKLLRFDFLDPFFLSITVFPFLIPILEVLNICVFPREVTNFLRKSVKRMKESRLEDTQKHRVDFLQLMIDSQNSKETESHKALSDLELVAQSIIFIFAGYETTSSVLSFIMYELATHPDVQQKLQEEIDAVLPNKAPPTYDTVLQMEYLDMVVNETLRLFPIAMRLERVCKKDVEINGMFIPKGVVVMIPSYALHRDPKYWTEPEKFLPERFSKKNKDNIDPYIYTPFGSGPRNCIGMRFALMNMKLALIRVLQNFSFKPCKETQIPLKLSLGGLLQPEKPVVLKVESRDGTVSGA
# [7] = tested on: CYP3A4 (activation of PXR in DPX2 cells); experiment: CYP3A4 induction screen in DPX2 cells; type: cell-based, human; conditions: extent compared with rifampicine, mifepristone, androstanol
# Text: The potential for in vitro induction of CYP3A4 was screened in DPX2 cells. The DPX2 cell line is a derivative of a human hepatocellular carcinoma cell line (HepG2) transformed with the human pregnane x receptor (PXR) and a reporter gene vector containing the enhancer region of CYP3A4. The potential for in vitro induction of CYP1A2 was screened in CYP1A2-DRE cells. The CYP1A2-DRE cell line is a stably transformed HepG2 cells with dioxin response elements (DRE) and reporter gene containing CYP1A2 promoter elements. The extent of CYP3A4 induction was determined by comparing the activation of PXR obtained with test article to that obtained with rifampicine (potent inducer), mifepristone (moderate inducer) and androstanol (weak inducer). The extent of CYP1A2 induction was determined by comparing the activation of the aryl hydrocarbon receptor (AhR) obtained with test article to that obtained with TCDD (potent inducer), omeprazole (moderate inducer), and 2-acetylaminofluorene (weak inducer).
# [8] = Table 18, highest concentration assayed 1.25 μM
# [9] = human, pooled human liver microsomes, probe diclofenac
# [10] = CYP3A4 (Testosterone), time dependent inhibition
# [11] = Human immunodeficiency virus 1, Table 17; over all virus/host combinations; read-out: Mean Activity Range
# [12] = Human immunodeficiency virus 1; read-out: EC50 range, 3 HIV-1 viral strains in 5 host human cell lines
SMILES,EC50 Values (HIV-2 ROD; [8]),IC50 (CYP2D6),"IC50, CYP2D6 (CYP2D6)",IC50 [2],Mean Activity Range (fold-resistance) [2],"Percentage Plasma Protein Binding, Rats [3]",interaction with 7 NRTIs or 6 PIs (wild-type HIV-1 virus),"t½, Compound Depletion in Hepatocytes, Human [4]",Ki (CYP2C9),"Type of inhibition, CYP2C9 (Diclofenac) (CYP2C9)",IC50 (CYP2C9; [9]),activity against sub-panel of mutants bearing NRTI and PI mutations [5],activity against EFV resistant viruses compared with EFV [5],IC50 (CYP2C19),"IC50, CYP2C19 (CYP2C19)",Ki (CYP3A4; [10]),"Type of inhibition, CYP3A4 (Midazolam) (CYP3A4)","Type of inhibition, CYP3A4 (Testosterone) (CYP3A4)","kinact (CYP3A4; human, probe midazolam)","kinact (CYP3A4; human, probe testosterone)",other results
"CO[P@](=O)(c1cc(C)cc(/C=C/C#N)c1)c1c(C(N)=O)[nH]c2ccc(Cl)c(F)c12 [Compound I, (2-Carbamoyl-5-chloro-4-fluoro-1H-indol-3-yl)-[3-((E)-2-cyano-vinyl)-5-methyl-phenyl]-(R)-phosphinic acid methyl ester]",failed to suppress HIV-2 ROD replication,> 20 µM,not observed,0.16 to 4.67 µM,0.5 to 15.5 µM,99.1%,no negative interaction observed; also recorded: none of the seven HIV NRTI drugs or the six HIV PI drugs tested exhibited a measurable negative or antagonistic interaction,limited in vitro metabolism,1.4 µM,competitive inhibition,< 10 µM,highly active,superior to EFV,10.2 µM,not observed,0.14 µM,mechanism-based inhibition,mechanism-based inhibition,0.0012 s⁻¹,0.00055 s⁻¹,"EC50 (HIV-2 ROD; Human immunodeficiency virus 2, H9, read-out: EC50 Values): > 1.25 µM; EC50 ([1]; Human immunodeficiency virus 1, read-out: EC50 range, 3 HIV-1 viral strains in 5 host human cell lines): 0.0005 to 0.002 µM; EC50 ([1]; Human immunodeficiency virus 1, read-out: Mean Activity Range, Table 17; over all virus/host combinations): 0.0005 µM; fraction unbound ([3]; plasma): < 0.01; half-life at 1 μM ([4]; hepatocytes): 3.58 ± 0.8 h; Type of inhibition, CYP2C9 (Diclofenac) (CYP2C9; listed as compound I): competitive inhibition; Ki (CYP2C9; [9]): 1.45 µM; potency relative to Compound III against EFV resistant viruses with double and triple mutants [5]: 2-3; half-life at 1 μM ([6]; microsomes): 1.67 h; Ki (CYP3A4; human, 3A4, Example 18 table): 0.36 µM; Ki (CYP3A4; human, probe midazolam, CYP3A4 (Midazolam), time dependent inhibition): 0.18 µM; IC50 (CYP3A4; human): < 10 µM; type of inhibition of CYP3A4 (CYP3A4): mechanism based inhibition; Induction, DPX2 (CYP3A4) [7]: moderate inducers; also recorded: Moderate (n = 2)"
"CO[P@](=O)(c1cc(C)cc(/C=C/C#N)c1)c1c(C(N)=O)[nH]c2ccc(Cl)cc12 [Compound III, (2-Carbamoyl-5-chloro-1H-indol-3-yl)-[3-((E)-2-cyano-vinyl)-5-methyl-phenyl]-(R)-phosphinic acid methyl ester]",failed to suppress HIV-2 ROD replication,> 20 µM,not observed,0.13 to 2.99 µM,0.6 to 13.7 µM,99.4%,no negative interaction observed; also recorded: none of the seven HIV NRTI drugs or the six HIV PI drugs tested exhibited a measurable negative or antagonistic interaction,limited in vitro metabolism,0.93 µM,competitive inhibition,< 10 µM,highly active,superior to EFV,10.2 µM,not observed,0.21 µM,mechanism-based inhibition,mechanism-based inhibition,0.001 s⁻¹,0.000833 s⁻¹,"EC50 (HIV-2 ROD; Human immunodeficiency virus 2, H9, Table 18, highest concentration assayed 1.25 μM, read-out: EC50 Values): > 1.25 µM; EC50 [1, 11]: 0.0005 µM; EC50 [1, 12]: 0.0005 to 0.0017 µM; fraction unbound ([3]; rat plasma): < 0.01; half-life at 1 μM ([4]; fresh hepatocytes plated on collagen-coated plates): 2.08 ± 0.917 h; Type of inhibition, CYP2C9 (Diclofenac) (CYP2C9; listed as compound III): competitive inhibition; half-life at 1 μM ([6]; liver microsomes): 1.48 h; Ki (CYP3A4; CYP3A4 (Midazolam), time dependent inhibition): 0.06 µM; IC50 (CYP3A4; human): < 10 µM; type of inhibition of CYP3A4 (CYP3A4): mechanism based inhibition; Induction, DPX2 (CYP3A4) [7]: moderate inducers; also recorded: Moderate (n = 2)"
"O=C1Nc2ccc(Cl)cc2C(C#CC2CC2)(C(F)(F)F)O1 (centres unmarked) [EFV, 6-chloro-4-cyclopropylethynyl-4-trifluoromethyl-1,4-dihydro-2H-3,1-benzoxazin-2-one, reference compound]",,,,≥ 0.02 µM,,,,,,,,,,,,,,,,,"EC50 [1, 11]: 0.0008 ± 0.0023 µM; EC50 [1, 12]: 0.0004 to 0.0032 µM"
